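Grown in 96-well plates, cells were treated for 48 hours with each compound at five concentrations. Insufficient inhibition: endpoint recorded as highest concentration tested. GI50 = concentration required for 50% inhibition of growth.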 Activity calls are given as the source filed them. Cut-off read from the data, not from the text of the source: active = GI50 up to about 1.1 µM and inactive = higher.
What was measured:
Test in all cases: NCI anticancer screen, dose series, 48 h
786-0 = test system: 786-0
A498 = test system: A498
A549 = test system: A549
ACHN = test system: ACHN
CAKI-1 = test system: CAKI-1
CCRF-CEM = test system: CCRF-CEM
COLO 205 = test system: COLO 205
DLD-1 = test system: DLD-1
DMS-114 = test system: DMS-114
DMS-273 = test system: DMS-273
EKVX = test system: EKVX
HCC 2998 = test system: HCC 2998
HCT-116 = test system: HCT-116
HCT-15 = test system: HCT-15
HL-60 = test system: HL-60
HOP-18 = test system: HOP-18
HOP-62 = test system: HOP-62
HOP-92 = test system: HOP-92
HT-29 = test system: HT-29
IGROV-1 = test system: IGROV-1
K562 = test system: K562
KM-20L2 = test system: KM-20L2
KM12 = test system: KM12
LOX IMVI = test system: LOX IMVI
LXFL 529 = test system: LXFL 529
M14 = test system: M14
M19-MEL = test system: M19-MEL
MOLT-4 = test system: MOLT-4
Malme-3M = test system: Malme-3M
NCI-H226 = test system: NCI-H226
NCI-H23 = test system: NCI-H23
NCI-H460 = test system: NCI-H460
NCI-H522 = test system: NCI-H522
OVCAR-3 = test system: OVCAR-3
OVCAR-4 = test system: OVCAR-4
OVCAR-5 = test system: OVCAR-5
OVCAR-8 = test system: OVCAR-8
RPMI-8226 = test system: RPMI-8226
RXF 393 = test system: RXF 393
RXF 631 = test system: RXF 631
SF-268 = test system: SF-268
SF-295 = test system: SF-295
SF-539 = test system: SF-539
SK-MEL-28 = test system: SK-MEL-28
SK-MEL-2 = test system: SK-MEL-2
SK-MEL-5 = test system: SK-MEL-5
SK-OV-3 = test system: SK-OV-3
SN12C = test system: SN12C
SNB-19 = test system: SNB-19
SNB-75 = test system: SNB-75
SNB-78 = test system: SNB-78
SR = test system: SR
SW-620 = test system: SW-620
TK-10 = test system: TK-10
U-251 = test system: U-251
UACC-257 = test system: UACC-257
UACC-62 = test system: UACC-62
UO-31 = test system: UO-31
XF498 = test system: XF498
BT-549 = test system: BT-549
DU-145 = test system: DU-145
Hs-578T = test system: Hs-578T
MCF7 = test system: MCF7
MDA-MB-231 = test system: MDA-MB-231
MDA-MB-435 = test system: MDA-MB-435
MDA-N = test system: MDA-N
NCI/ADR-RES = test system: NCI/ADR-RES
PC-3 = test system: PC-3
T47D = test system: T47D

Measured: GI50

O=C1C2C3C=CC(C2C(=O)N1CN1CCSCC1)C1C2C(=O)N(CN4CCSCC4)C(=O)C2C31 (stereo not drawn)
inactive: 786-0 > 52.4 µM | A498 > 100 µM | A549 62.1 µM | ACHN > 77.6 µM | CAKI-1 > 100 µM | CCRF-CEM 45.9 µM | COLO 205 56.5 µM | DLD-1 > 51.4 µM | DMS-114 38.8 µM | DMS-273 > 43.5 µM | EKVX > 100 µM | HCC 2998 > 100 µM | HCT-116 > 41.2 µM | HL-60 29.9 µM | HOP-18 41.2 µM | HOP-62 > 100 µM | HOP-92 > 75.5 µM | HT-29 > 74 µM | IGROV-1 > 100 µM | K562 > 100 µM | KM-20L2 > 76.2 µM | KM12 > 100 µM | LOX IMVI > 53.5 µM | LXFL 529 > 100 µM | M14 > 100 µM | M19-MEL > 100 µM | MOLT-4 > 78.5 µM | Malme-3M > 100 µM | NCI-H226 > 100 µM | NCI-H23 > 100 µM | NCI-H460 31.2 µM | NCI-H522 > 100 µM | OVCAR-3 > 100 µM | OVCAR-4 > 100 µM | OVCAR-5 > 100 µM | OVCAR-8 > 94.2 µM | RPMI-8226 25.5 µM | RXF 393 > 100 µM | RXF 631 > 100 µM | SF-268 > 50.4 µM | SF-295 > 100 µM | SF-539 > 100 µM | SK-MEL-28 > 100 µM | SK-MEL-2 > 100 µM | SK-MEL-5 > 100 µM | SK-OV-3 > 100 µM | SN12C 97.9 µM | SNB-19 > 100 µM | SNB-75 45.3 µM | SNB-78 > 100 µM | SR 39.7 µM | SW-620 31.7 µM | TK-10 > 100 µM | U-251 > 72.1 µM | UACC-257 > 100 µM | UACC-62 > 100 µM | UO-31 > 100 µM | XF498 > 100 µM
34.8 µM: HCT-15

COC1/C=C/OC2(C)Oc3c(C)c(O)c4c(c3C2=O)C(=O)C=C(NC(=O)/C(C)=C\C=C\C(C)C(OC=O)C(C)C(O)C(C)C(OC(C)=O)C1C)C4=O (stereo not drawn)
8.61 µM: HCT-15
inactive: 786-0 8.24 µM | A498 18.6 µM | A549 21 µM | ACHN 8.67 µM | BT-549 11.1 µM | CAKI-1 12 µM | CCRF-CEM 2.03 µM | COLO 205 4.59 µM | DLD-1 9.89 µM | DMS-114 16.8 µM | DMS-273 16.9 µM | DU-145 18.8 µM | EKVX 14.7 µM | HCC 2998 19.6 µM | HCT-116 4.82 µM | HL-60 2.33 µM | HOP-18 5.36 µM | HOP-62 18.7 µM | HOP-92 13.5 µM | HT-29 10.5 µM | Hs-578T 15.2 µM | IGROV-1 18.5 µM | K562 3.61 µM | KM-20L2 18.2 µM | KM12 26.8 µM | LOX IMVI 7.5 µM | LXFL 529 6.5 µM | M14 8.65 µM | M19-MEL 13.1 µM | MCF7 2.93 µM | MDA-MB-231 13.4 µM | MDA-MB-435 16 µM | MDA-N 15.8 µM | MOLT-4 3.01 µM | Malme-3M 13.4 µM | NCI-H226 13.6 µM | NCI-H23 14.4 µM | NCI-H460 21.1 µM | NCI-H522 2.45 µM | NCI/ADR-RES 17.5 µM | OVCAR-3 3.76 µM | OVCAR-4 7.4 µM | OVCAR-5 20.7 µM | OVCAR-8 15.3 µM | PC-3 10.3 µM | RPMI-8226 5.22 µM | RXF 393 7.67 µM | RXF 631 15.7 µM | SF-268 17.7 µM | SF-295 23.3 µM | SF-539 17.6 µM | SK-MEL-28 6.64 µM | SK-MEL-2 20 µM | SK-MEL-5 15.8 µM | SK-OV-3 28.7 µM | SN12C 15.2 µM | SNB-19 14.5 µM | SNB-75 18.3 µM | SNB-78 20.1 µM | SR 2.77 µM | SW-620 4.04 µM | T47D 3.65 µM | TK-10 16.6 µM | U-251 20.6 µM | UACC-257 11.4 µM | UACC-62 12.7 µM | UO-31 16 µM | XF498 4 µM

Reference: ChEMBL document CHEMBL1201862, “PubChem BioAssay data set” (2004)
